Assay results from patent US4374284A, “Antiulcer, antiinflammatory, and antiallergic agent comprising as the main ingredient olean-12-ene-3β, 30-diol which is devoid of side effects of glycyrrhetinic acid and a new process for preparation of olean-12-ene-3β, 30-diol” (Minophagen Pharmaceutical Company, priority 1980, dated 1983).

Assays:
[1] = target: T1, Δ^4 -5α-reductase for aldosterone in rat liver (Rattus norvegicus, UniProt P24008); test: inhibitory action on Δ^4-5α-reductase for aldosterone; assay type: biochemical; conditions: for inhibition at 0.173 µM: pH 7.2, read-out: 5α-reductase (inhibition %)
T1 construct: The pellet was appropriately diluted with a solution of 0.25 M sucrose-1 mM EDTA to use as a 5α-reductase solution; from tissue; host or cells: rat liver, 105,000 g pellet
T1 sequence (P24008 1-259): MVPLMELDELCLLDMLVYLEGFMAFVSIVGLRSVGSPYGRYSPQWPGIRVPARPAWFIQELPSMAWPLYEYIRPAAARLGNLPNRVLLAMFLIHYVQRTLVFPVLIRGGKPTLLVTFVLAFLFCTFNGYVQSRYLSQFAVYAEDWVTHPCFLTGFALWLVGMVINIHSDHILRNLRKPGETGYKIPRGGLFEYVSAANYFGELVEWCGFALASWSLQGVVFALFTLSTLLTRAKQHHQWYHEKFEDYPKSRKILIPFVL
Description: (§1) In vitro experimental results regarding effects of glycyrrhetinic acid (II) and its modified compounds (III), (IV), and (I) on Δ^4 -5α and 5β-reductase for aldosterone in rat liver will be shown below.
(§2) Assay for activity of Δ^4 -5α and 5β-reductase
(§3) (1) Preparation of enzyme solutions
(§4) Rat livers were perfused with saline and excised to prepare a 25% or 50% homogenate with a solution of 0.25 M sucrose and 1 mM EDTA. The homogenate was spun at 10,000 g for 20 minutes to separate supernatant, which was centrifuged again at 105,000 g to obtain Δ^4 -5β-reductase as the supernatant. The pellet was appropriately diluted with a solution of 0.25 M sucrose-1 mM EDTA to use as a 5α-reductase solution.
(§5) (2) Conditions for incubation and assay
(§6) 1 Aldosterone . . . 0.173 μM/0.05 ml ethanol solution
(§7) 2 Glycyrrhetinic acid or its modified compounds . . . 0.173 μM/0.05 ml ethanol solution Control . . . 0.05 ml ethanol solution
(§8) 5α-reductase solution 0.1 ml
(§9) 5β-reductase solution 0.1 ml or 0.2 ml
(§10) 5 Phosphate buffer (0.1 M, pH 7.2) 1 ml
(§11) The components 1 , 2 , 3 , 4 , 5 , and 6 mentioned above were mixed to bring the total volume up to 2.5 ml. The mixture was incubated at 37° C. for 20 minutes. Before the incubation, however, 1 ml aliquot was removed from 2.5 ml of the mixture mentioned above and extracted with 5 ml of methylene dichloride. After the incubation, the remaining 1.5 ml was extracted with 5 ml of methylene dichloride. The optical density of the two methylene dichloride solutions prepared before and after the incubation was measured by a spectrophotometer (Hitachi) at 240 mμ. Inhibition % of Δ^4 -5α and 5β-reductase activity was calculated from the difference in the optical density.

stress-induced ulcer = test: mice experiments on stress-induced ulcer (restraint plus water immersion); assay type: in vivo, male ddY mice; conditions: for inhibitory effect on stress-induced ulcer (in words): 200 mg/kg
Description: (a) Mice Experiments on stress-induced ulcer Experimental procedures:
Male ddY mice weighing about 20 g were made to fast for 18 hours. Water was given freely. Compounds to be tested were suspended in Tween 80 to prepare an aqueous suspension and administered orally. Immediately thereafter, the mice were subjected to restraint plus water immersion stress (25° C.) for 6 hours. Thereafter, the stomach was excised and fixed by formalin. The degree of ulcer was shown as a total of the length. The control group was given only the solvent.

aspirin-induced ulcer [2] = test: rat experiment on aspirin-induced ulcer, oral (experiment b); assay type: in vivo, male Wister rats; conditions: 200 mg/kg p.o., after 5 hours; control 0
Description: (b) Experimental procedures:
Male Wister rats weighing 120-140 g were made to fast for 24 hours, and compounds to be tested were administered orally. After 5 hours, the rats were killed by a blow. The stomach was excised and observed for the presence of ulcer.
The size of ulcer was measured by ulcer index (ulcer length×width mm^2).

[3] = system: writhing induced by acetic acid; test: effect on writhing induced by acetic acid (analgesic action); assay type: in vivo, male ddY mice; conditions: for number of writhing: 200 mg/kg p.o., counted for 10 minutes, control 24.9 ± 1.6, ** p < 0.01
Description: (b) Effect on writhing induced by acetic acid (analgesic action)
The present compound olean-12-ene-3β, 30-diol (I) was administered orally to male ddY mice weighing 25-27 g. After 30 minutes, saline containing 0.7% acetic acid was administered intraperitoneally. The number of writhings of the mice was counted for 10 minutes from, 10 min. of the administration. Aspirin was used as the reference.

[4] = system: rat paw edema induced with carrageenin; test: test on rat paw edema induced with carrageenin (antiinflammatory); assay type: in vivo, male Wister rats; conditions: 200 mg/kg p.o., after three hours
Description: (a) Test on rat paw induced with carrageenin
To the plantar side of the hind paw of male Wister rats was administered subcutaneously 0.05 ml/rat of 10% saline solution of carrageenin. Edema after three hours was measured by the volume method and the rate of inhibition was assayed. Compounds were administered orally 30 minutes before administration of carrageenin. [formula]

[5] = higher dosages for a long period, clinical; cited from earlier work
[6] = system: PCA reaction (type I allergy); test: PCA test (type I allergy); assay type: in vivo, male Wister rats; conditions: serum 1/64, 200 mg/kg intraperitoneally; control 16.4 ± 2.8
Description: (a) PCA--Test (type I allergy)
Male Wister rats weighing […] were shaved at the abdomen. After 24 hours, 0.05 ml of serum diluted with saline (Blood samples were diluted to 1/32 and 1/64; The blood samples were collected from rats 3 weeks after administration of pertussis vaccine and egg albumin.) was injected intradermally at the abdomen. After 48 hours, compounds to be tested were administered intraperitoneally. Two hours thereafter, 0.5 ml./100 g of a solution of antigen and pigment (a solution of 0.4% egg albumin and 0.5% Pontamine sky blue) was administered. After 45 minutes, the rats were decapitated and bled, and the diameter of the pigment-leaking site under the skin was measured to obtain the area.

[7] = system: ulcers induced by acetic acid; test: experiments with rats on ulcers induced by acetic acid (chronic gastric ulcers); assay type: in vivo; set-up: ulcer value (major axis × minor axis): unit not given here; conditions: for ulcer value (major axis × minor axis): p.o., 14 days
Description: (c) Experiments with rats on ulcers induced by acetic acid
Chronic gastric ulcers were induced by penetrating 100% acetic acid serosally into gastric wall for 60 sec. using a small cup (6 mm in diameter, 5 mm in height).
From the next day, compounds to be tested were administered orally twice a day (morning and evening) for 14 days. Autopsies were carried out 15 days after the administrations.

[8] = target: T2, Δ^4 -5β-reductase for aldosterone in rat liver (Rattus norvegicus, UniProt P31210); test: inhibitory action on Δ^4-5β-reductase for aldosterone; assay type: biochemical
T2 construct: centrifuged again at 105,000 g to obtain Δ^4 -5β-reductase as the supernatant; from tissue; host or cells: rat liver, 105,000 g supernatant (cytosol)
T2 sequence (P31210 1-326): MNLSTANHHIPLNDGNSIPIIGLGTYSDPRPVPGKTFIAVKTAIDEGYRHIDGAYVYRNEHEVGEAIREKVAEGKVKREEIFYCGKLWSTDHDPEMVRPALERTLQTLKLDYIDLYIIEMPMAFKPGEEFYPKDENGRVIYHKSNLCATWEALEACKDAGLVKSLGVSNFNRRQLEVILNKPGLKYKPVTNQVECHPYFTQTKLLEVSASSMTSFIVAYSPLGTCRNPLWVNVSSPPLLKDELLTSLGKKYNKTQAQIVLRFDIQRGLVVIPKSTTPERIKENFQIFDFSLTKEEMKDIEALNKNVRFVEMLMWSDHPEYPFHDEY
Description: as §1, §2, §3, §4, §5, §6, §7, §8, §9, §10, §11

aspirin-induced ulcer [9] = test: rat experiment on aspirin-induced ulcer, pylorus ligated (experiment a); assay type: in vivo, male Wister rats; conditions: rat, in vivo
Description: (b) Rat experiment on aspirin-induced ulcer
(a) Experimental procedures:
Male Wister rats weighing about 220 g were made to fast for 24 hours. Water was given freely. The rats were laparotomized under anesthesia with ether. The stomach was drawn out and ligated at the pylorus. Immediately thereafter, 1% CMC suspension of aspirin was administered orally in a dose of 100 mg/kg/5 ml. Aqueous suspensions of compounds to be tested were prepared in the same manner as in the experiment (a) and administered intraduodenally at the same time. The wound was closed and the rats were set free. After 7 hours, the stomach was excised and ulcer was measured in the same manner as in the experiment (a).

[10] = summary in words, liver reductase

In the case of `CC1(C)[C@@H](O)CC[C@]2(C)[C@H]3CC=C4[C@@H]5C[C@@](C)(C(=O)O)CC[C@]5(C)CC[C@@]4(C)[C@]3(C)CC[C@@H]12` [III, olean-12-ene-3β-ol-30-oic acid], the inhibition at 0.173 µM [1] is reported as -0.5 ± 6.6%, the “inhibitory effect on stress-induced ulcer (in words)” value (stress-induced ulcer) is reported as “showed the effect” and the ulcer index (stress-induced ulcer; 200 mg/kg p.o., 5th experiment, control 4.13 ± 0.53) is reported as 3.38 ± 0.79.
In the case of `CC1(C)[C@@H](O)CC[C@]2(C)[C@H]3C(=O)C=C4[C@@H]5C[C@@](C)(CO)CC[C@]5(C)CC[C@@]4(C)[C@]3(C)CC[C@@H]12` [IV, olean12-ene-11-oxo-3β, 30diol], the inhibition at 0.173 µM [1] is reported as 26.5 ± 5.6%.
In the case of `CC(=O)Oc1ccccc1C(=O)O` [aspirin, reference compound], the “ulcer index (ulcer length×width)” value (aspirin-induced ulcer [2]) is reported as 7.11 ± 1.1 mm^2, the number of writhing [3] is reported as 0 and the edema % ([4]; control 71 ± 6) is reported as 17 ± 3%. It also gave an inhibition at 200 mg/kg ([4]; Rattus norvegicus, po, 3 h, edema) of 76.1%.
For `CC1(C)[C@@H](O[C@H]2O[C@H](C(=O)O)[C@@H](O)[C@H](O)[C@H]2O[C@@H]2O[C@H](C(=O)O)[C@@H](O)[C@H](O)[C@H]2O)CC[C@]2(C)[C@H]3C(=O)C=C4[C@@H]5C[C@@](C)(C(=O)O)CC[C@]5(C)CC[C@@]4(C)[C@]3(C)CC[C@@H]12` [Glycyrrhizin], the “side effect (in words)” value [5] is listed as “pseudoaldosteronism such as hypertension, hypopotassemia, and edema”.
For `CC1(C)[C@@H](O)CC[C@]2(C)[C@H]3C(=O)C=C4[C@@H]5C[C@@](C)(C(=O)O)CC[C@]5(C)CC[C@@]4(C)[C@]3(C)CC[C@@H]12` [II, olean-12-ene-11-oxo-3β-ol-30-oic acid, reference compound], the area [6] was 7.7 ± 6.5 mm^2, the “ulcer value (major axis × minor axis)” value ([7]; Experiment 1, 200 mg/kg (half dose twice/day), control 12.0 ± 2.3) was 10.4 ± 2.7 and the “ulcer value (major axis × minor axis)” value ([7]; Experiment 1, 400 mg/kg (half dose twice/day), control 12.0 ± 2.3) was 8.6 ± 2.2. For the same molecule, the “ulcer value (major axis × minor axis)” value ([7]; Experiment 2, 200 mg/kg (half dose twice/day), control 8.9 ± 1.7) was 11.5 ± 2.2, the “ulcer value (major axis × minor axis)” value ([7]; Experiment 2, 400 mg/kg (half dose twice/day), control 8.9 ± 1.7) was 5.8 ± 1.0 and the “ulcer value (major axis × minor axis)” value ([7]; Total, 200 mg/kg (half dose twice/day), control 10.4 ± 1.4) was 10.9 ± 1.7. The “ulcer value (major axis × minor axis)” value ([7]; Total, 400 mg/kg (half dose twice/day), control 10.4 ± 1.4, * p < 0.05) was 7.1 ± 1.2, the “inhibitory effect on acetic acid ulcer (in words)” value ([7]; dose of 400 mg) was “clearly showed inhibitory effects” and the number of writhing [3] was 15.2 ± 3.6. For the same molecule, the “effect on writhing (in words)” value ([3]; increasing doses) was “significantly decrease the number of writhing”, the inhibition at 0.173 µM (stock) ([8]; equimolar to aldosterone (0.173 μM), 37° C., 20 minutes, pH 7.2) was 87.7 ± 2.2% and the “effect upon Δ^4 -5α-5β-reductase (in words), 5β” value [8, 10] was “strongly inhibited the activity of the reductase”. The “effect upon Δ^4 -5α-5β-reductase (in words), 5α” value [1, 10] was “strongly inhibited the activity of the reductase”, the “inhibitory effect on stress-induced ulcer (in words)” value (stress-induced ulcer) was “showed the inhibitory effect” and the “inhibitory effect on aspirin-induced ulcer, experiment (a) (in words)” value (aspirin-induced ulcer [9]) was “scarcely showed the effect”.
